pEC50: −log10 of the molar value.

The text below walks through data of patent publication US20250026759A1 (Merck Sharp & Dohme LLC, priority 2023, published 2025).

In this assay the test system is PBMCs infected with VSV-G pseudotyped HIV virus (VSV-G/pNLG1-P2A-ΔEnv). In words: cells. Format: cell-based, human. The following applies: Homo sapiens, PBMC, read-out: TACK EC50.
As for `CN(C)Cc1ccn(Cc2cc3c(cc2F)[C@@](C#CC2CC2)(C(C)(F)F)NC(=O)N3)n1` [Example 126, (S)-4-(cyclopropylethynyl)-4-(1,1-difluoroethyl)-7-((3-((dimethylamino)methyl)-1H-pyrazol-1-yl)methyl)-6-fluoro-3,4-dihydroquinazolin-2(1H)-one], the pEC50 was 6.99.
For `Cc1ccn(Cc2ccc3c(c2)NC(=O)N[C@]3(C#CC2CC2)C(F)(F)F)n1` [Example 127, (S)-4-(cyclopropylethynyl)-7-((3-methyl-1H-pyrazol-1-yl)methyl)-4-(trifluoromethyl)-3,4-dihydroquinazolin-2(1H)-one] the value was 6.99; for `Cc1nn(Cc2cc3c(cc2F)[C@@](C#CC2CC2)(C(C)(F)F)NC(=O)N3)c(=O)n1C` [Example 128, (S)-4-(cyclopropylethynyl)-4-(1,1-difluoroethyl)-7-((3,4-dimethyl-5-oxo-4,5-dihydro-1H-1,2,4-triazol-1-yl)methyl)-6-fluoro-3,4-dihydroquinazolin-2(1H)-one], 6.94; for `CC(C)(O)c1ccn(Cc2cc3c(cc2F)[C@@](C#CC2CC2)(C(C)(F)F)NC(=O)N3)n1` [Example 129, (S)-4-(cyclopropylethynyl)-4-(1,1-difluoroethyl)-6-fluoro-7-((3-(2-hydroxypropan-2-yl)-1H-pyrazol-1-yl)methyl)-3,4-dihydroquinazolin-2(1H)-one], 6.77.
